# Measurements reported in patent US20120121574A1, “ANTIMICROBIAL, ANTIVIRAL, ANTICANCER AND IMMUNOMODULATORY PEPTIDES AND USES THEREFORE” (priority 2010, published 2012).
# Where a SMILES comes first, the peptide text is derived from it. Where no end group is shown, it is not given here.
# Experiments:
# U937 cell line = assay: annexine-V/propidium iodide flow cytometry on U937; conditions: annexine-V/propidium iodide staining
# [1] = tested on: C. albicans AIDS68 strain; assay: murine model of vaginal candidiasis, fluconazole-resistant strain; format: in vivo, mice; conditions: peptide 25 micrograms intravaginally 1, 24 and 48 hours after challenge
# Protocol: (§1) In vivo activity of N10K against vaginal candidiasis caused in mice by the fluconazole-resistant C. albicans AIDS68 strain. The anticandidal therapeutic activity of N10K was evaluated in a murine model of vaginal candidiasis. Groups of 5 mice were injected subcutaneously with 0.02 mg of estradiol benzoate in 100 μl of saline solution, […] and weekly thereafter. Then, mice given intravaginally 10^6 cells of the fluconazole-resistant C. albicans strain AIDS68 in 20 μl of saline solution on day 0 and were sampled for intravaginal CFU. N10K, 25 micrograms, was intravaginally administered in comparison to an irrelevant peptide (SP) as control, 1, 24 and 48 hours after the infectious challenge and sampled for intravaginal CFU at days 1, 2, 5, 7, 14, 21, and 28. The statistical significance was assessed by two-tailed Student's t test. On days 1, 2, 5, 7, 14, and 21, the differences in the CFU vaginal counts between N10K treated, untreated, SP treated and fluconazole treated animals were statistically significant (P<0.05) (Table VI).
# as §1, with “T11F” for “N10K”, “T11F,” for “N10K,”, “VIII).” for “VI).”
# [2] = tested on: C. albicans SC5314 strain; conditions: for EC50: SC5314, 6 h; for EC50asd/EC50N10K: Table IX
# Protocol: In vitro activity of N10K against C. albicans SC5314 strain. The candidacidal activity of N10K peptide against C. albicans was assessed by a conventional colony forming unit (CFU) assay as previously described (Polonelli et al., 2003; Manfredi et al., 2005). Briefly, cells of C. albicans SC5314 were incubated at 37° C. for 6 hours (hr) in the presence of N10K at the concentration indicated of 20, 12.5 or 6.25 microgram/ml, or in distilled water as control (C). After incubation, cell suspensions were plated on Sabouraud dextrose agar and incubated at 30° C. for 48 hours when CFU were counted (** P<0.01 for N10K treated versus untreated cells, by t test). […]
# The alanine-substituted derivatives (asd), defined according to the position held by the alanine-substituted aminoacid, were tested against C. albicans by a conventional colony forming unit (CFU) as previously described (Polonelli et al., 2003). Briefly, cells of C. albicans SC5314 were incubated at 37° C. for 6 hours in the presence of N10K or N10K asd at different scalar concentrations or distilled water as control. After incubation, cell suspensions were plated on Sabouraud dextrose agar and incubated at 30° C. for 48 hours when CFU were counted. Based on several independent replications, the EC50 value of each peptide was calculated by nonlinear regression analysis using Graph Pad Prism 4.01 software, San Diego, Calif., USA. […]
# In vitro microbicidal activity of N10K derivative with 2 amino acid substitutions, or 80% sequence identity with native N10K, namely peptide Seq Id. No. 25 was tested against Candida albicans SC5314 as determined by Colony Forming Unit assay.
# [3] = tested on: peritoneal murine macrophages (PM); assay: in vitro immunomodulatory activity on murine peritoneal macrophages (PM); format: cell-based, mouse; conditions: mouse peritoneal macrophages, FIG. 73
# Protocol: In vitro immunomodulatory activity of MoA VHCDR3 on murine immune cells. FIGS. 47-51 are graphs showing TNF-α and IL-6 production by PM and PMN stimulated with MoA CDRs and mouse MoA VHCDR3 uptake by different cell populations. Cells were cultured in the presence or absence (NS) of human and/or mouse CDRs, lipopolisaccharide (LPS), or negative control peptide (NC) (all 10 micrograms/ml) for 18 hr. Both PM and PMN cell populations were 5×10^6/ml. After incubation, TNF-α and IL-6 levels were evaluated in culture supernatants by specific ELISA assays (* P<0.05 treated vs untreated cells, n=7). In FIG. 51, dendritic cells (DC), PM, PMN, and T cells (all 1×10^6/ml) were incubated for 1 hr in the presence or absence (NS) of biotinylated (b)-MoA VHCDR3 or b-NC (both 10 micrograms/ml). After incubation, permeabilized cells were reacted with FITC-labelled mAb to biotin (b) and analyzed by FACScan flow cytometry. Data are reported as the percentage of positive cells *, P<0.05 (b-VHCDR3 treated vs untreated cells, n=5). Error bars, s.e.m. FIGS. 52A and B show graphs and colored cell staining micrograph of kinetic of VHCDR3 uptake by PM. PM (1×10^6/ml) were incubated for different times with b-VHCDR3 or b-NC (all 10 micrograms/ml). After incubation, permeabilized cells were reacted with FITC-labelled mAb to biotin and analyzed by FACScan flow cytometry. Data are reported as the mean fluorescence intensity (MFI) and percentage of positive cells (FIG. 52A) (* P<0.05 b-VHCDR3-treated vs untreated cells, n=7). Error bars, s.e.m. In selected experiments, cells were incubated for 1 hr as above described, reacted with FITC-labelled mAb to biotin in the presence of Evans' Blue as a counter stain, and subsequently examined under fluorescent light microscopy (FIG. 52B). Note the green fluorescence of b-VHCDR3 treated cells. Original magnification 20×. In FIGS. 53 and 54 is shown the phospho-Akt activation and TNF-α production in PM stimulated with MoA VHCDR3. PM (3×10^6/ml) were stimulated for 1 hr in the presence or absence (NS) of MoA VHCDR3, LPS, an irrelevant control peptide (NC) or a scrambled peptide (SP) (all 10 micrograms/ml). After incubation, cell lysates were subjected to Western blotting. Membranes were incubated with Abs to pAkt and Akt; pAkt was normalized against Akt (FIG. 53)*, P<0.05 (treated vs untreated cells, n=5). […] PM (5×10^6/ml) were stimulated for 18 hr as above described. After incubation, TNF-α level was evaluated in culture supernatants by specific ELISA assays. (FIG. 54)*, P<0.05 (treated vs untreated cells, n=5). In FIGS. 55 and 56 is shown the phospho-IkBα activation and TNF-α gene expression in PM stimulated with MoA VHCDR3. PM (3×10^6/ml) were stimulated for 1 hr in the presence or absence (NS) of wortmannin (4 nM), MoA VHCDR3, LPS or NC (all 10 micrograms/ml). After incubation, cell lysates were subjected to Western blotting. Membranes were incubated with Abs to pIkBα and IkBα; pIkBα was normalized against IkBα. (FIG. 55)*, P<0.05 (treated versus untreated cells, n=5); †, P<0.05 (wortmannin-treated vs wortmannin-untreated cells, n=5). For testing the expression level of TNF-α gene, PM (1×10^6/ml) were cultured for 1, 6 and 18 hr as above described. After incubation, total RNA was isolated and analyzed for mRNA expression with RT-PCR (FIG. 56). Transcript copy numbers were determined by qPCR using cDNA as a template. Copy numbers were normalized against the copy number of the GADPH gene (B). […]
# [4] = tested on: C. neoformans 6995 strain; conditions: 6995 strain, 6 h
# Protocol: After the incubation period, the cell suspensions have been plated on Sabouraud dextrose agar, then incubated at 30° C. and observed for CFU enumeration after 48 hours.
Compound,EC50 [2] [nM],EC50asd/EC50N10K [2],other results
"CC(C)C[C@H](NC(=O)[C@H](C)NC(=O)[C@H](CCC(=O)O)NC(=O)[C@@H](N)Cc1c[nH]cn1)C(=O)O [Peptide H4L, H E A L] (H-HEAL-OH)",–,–,induction of apoptotic/necrotic effects (U937 cell line): exclude the induction of apoptotic/necrotic effects
OC(Cn1cncn1)(Cn1cncn1)c1ccc(F)cc1F [fluconazole],–,–,CFU vaginal counts ([1]; Day 0): >100; CFU vaginal counts ([1]; Day 1): >100; CFU vaginal counts ([1]; Day 2): 93 ± 4.3; CFU vaginal counts ([1]; Day 5): 61 ± 2.5; CFU vaginal counts ([1]; Day 7): 44 ± 2.9; CFU vaginal counts ([1]; Day 14): 18.7 ± 3.8; CFU vaginal counts ([1]; Day 21): 11.7 ± 0.7; CFU vaginal counts ([1]; Day 28): 0
"AQVSLTCLVK [asd N1A N10K, A Q V S L T C L V K]",587,0.58,–
G Q A G N L W F A Y (GQAGNLWFAY) [Peptide A3],–,–,TNF-α-inducing activity compared with VHCDR3 [3]: either unchanged or slightly reduced
G Q Y G A L W F A Y (GQYGALWFAY) [Peptide A5],–,–,TNF-α-inducing activity compared with VHCDR3 [3]: either unchanged or slightly reduced
N Q V S L T C L V A (NQVSLTCLVA) [asd K10A],–,–,"percentual inhibition of C. albicans growth ([2]; at the concentration of 250 micrograms/ml): * EC50 was not determined, asd K10A showed a percentual inhibition of C. albicans growth equal to 69.04 at the concentration of 250 micrograms/ml"
"NQASLTCLVK [asd V3A N10K, N Q A S L T C L V K]",5930,5.91,–
"NQVALTCLVK [asd S4A N10K, N Q V A L T C L V K]",2390,2.38,–
"NQVSATCLVK [asd L5A N10K, N Q V S A T C L V K]",885,0.88,–
"NQVSATCSVK [L5A, L8S N10K, N Q V S A T C S V K]",43200,–,"Activity ([2]; Table III, in vitro, Fungus): cidal"
"NQVSLACLVK [asd T6A N10K, N Q V S L A C L V K]",4880,4.86,–
"NQVSLTALVK [asd C7A N10K, N Q V S L T A L V K]",54900,54.71,–
"NQVSLTCAVK [asd L8A N10K, N Q V S L T C A V K]",744,0.74,–
"NQVSLTCLAK [asd V9A N10K, N Q V S L T C L A K]",1780,1.77,–
"TCRVDHRGLTF [Peptide T11F, T C R V D H R G L T F]",1600,–,EC50 [4]: 2690 nM; induction of apoptotic/necrotic effects (U937 cell line): exclude the induction of apoptotic/necrotic effects
